In patent US11447742B2, “Compositions and methods for activation and overexpression of secondary metabolites in microorganisms” (Prospective Research, Inc., priority 2016, dated 2022):
Entries after “also recorded” stand apart in the source; their conditions may differ.

Experiments:
[1] = test system: S. coelicolor; assay: Induction of pigmented antibiotic (actinorhodin) production in S. coelicolor plate cultures spotted with GBLs; assay type: cell-based, Streptomyces coelicolor; details: for antibiotic production (dark spot): S. coelicolor SMMS plates spotted with 1-100 μg racemic mixture of I-VII and VB-D at inoculation, observed after 42 hours; for dose dependence of antibiotic production (diameter of dark spot): amount of GBL mixture I-VII and VB-D 1-100 μg; for production of pigmented antibiotics (actinorhodin): S. coelicolor on SMMS plates, 2 μL spot with 16.5-165 μg racemic GBLs X and XI at inoculation, versus control plates without GBL
Method: The formulas I-VII in FIG. 10 illustrate the structures of the enantiomers in the mixture of GBLs tested for ability to elicit antibiotic production, the results of which are shown in the plates in FIG. 9. […] The mixture of GBLs was added to a pure culture of non-cognate microorganism S. coelicolor. Streptomycete strains were cultured in complex medium R5 or in minimal medium MMS. See Kieser, T. et al., Practical Streptomyces Genetics, John Innes Institute, 2000.
Spore stock of S. coelicolor was used to inoculate SMMS agar (solid SMM medium) and the spore suspension on the surfaces of the plates was allowed to dry. The GBL amounts were added at the time of inoculation.
The two plates in the top of the photograph of FIG. 9 are controls cultures of S. coelicolor. The control plate on the left is a negative control in which no GBL nor vehicle was added. The control plate on the right was contacted with the vehicle only, which was a mixture of methanol and water.
A racemic mixture of GBLs containing the non-naturally occurring compounds 1-VII and virginiae butenolide-D (VB-D) was synthesized, and an amount of about 500 μg was dissolved in 100 μL of vehicle to yield a 5 mg/ml concentration solution. The plates of the second row from left to right were spotted with 20 μL (100 μg), 10 μL (50 μg), 5 μL (25 μg), and […] of the 10 mg/ml concentration solution, respectively. […] The fifth plate of the third row was spotted with 2 μL (1 μg) of a 1:10 dilution of the 10 mg/ml concentration solution.
FIG. 12 is a photograph of SMMS (supplemented minimal media solid) plates inoculated with a spore stock of S. coelicolor streaked to cover the surface of the medium in the plate. At the time of inoculation, 2 μL of a racemic solution containing each amount of a dilution of the racemic GBLs having formulas X and XI were deposited in the center of a plate. Plate 1a was spotted with 2 μL of a solution containing 16.5 μg of GBLs X and XI. Plates 2a and 2b were spotted with 2 μL of a solution containing 33 μg of GBLs X and XI. Plate 3a was spotted with a solution containing 49.5 μg of GBLs X and XI. Plates 4a and 4b were spotted with a solution containing 66 μg of GBLs X and XI. Plates 5a, 6a, 7a, were spotted with solutions containing 99 μg, 132 μg, and 165 μg of GBLs X and XI, respectively. Racemic mixture GBLs were present in equal molar amounts. […] No pigment production was observed on the control plates shown in FIG. 7 not contacted with GBLs.

[2] = test system: S. glaucescens; assay: Principal component analysis of secondary metabolites of S. glaucescens small scale fermentations with GBLs; assay type: cell-based; details: for induction of secondary metabolite production: S. glaucescens fermented in SMM medium, LC-MS data, versus untreated control (FIG. 17)
Method: S. glaucescens cells were grown in 3 mL cultures under 96 different conditions of medium, GBL choice, and GBL concentration. Each GBL solution was added to a tube in each of the following concentrations: 0.2 μM, 0.8 μM, 4 μM, 20 μM, and 100 μM. Media were a minimal medium SMM or a yeast enriched complex medium R5 (also called R2YE). The GBL indicated in FIG. 17 as PR001 and PR002 are shown in FIG. 16, and have the chemical formulae, respectively: 3-(1-hydroxyethyl)-4-(hydroxymethyl)dihydrofuran-2(3H)-one; and, 3-(1-hydroxyheptyl)-4-(hydroxymethyl)dihydrofuran-2(3H)-one.
Fermentations were incubated in 24-well blocks (CR 424, Enzyscreen B.V., Netherlands) with lids (1221a), and were shaken at 200 rpm for 5 days at 28° C. in an Infors HT incubator (Infors AG, Switzerland). For analysis, a C18 SPE-IT tip (57234-U from Sigma-Aldrich) was added to each fermentation which were further shaken at 400 rpm for one hour. Tips were removed and rinsed in deionized water, and were analyzed directly or stored for analysis. Analysis was collected at ionsense, Inc. (Saugus, Mass.) vaporized with a DART source at 400 C and 1 mm/s, and mass spectral data collected in a Thermo LTQ. Analysis used Progenesis QI from Nonlinear Dynamics (Waters).
Principal component analysis data of secondary metabolites induced by the GBLs in comparison to control absent GBL are shown in FIG. 17. […] Accordingly, 100 μM GBL was used in large scale fermentions.

[3] = test system: S. coelicolor; assay: Large scale S. coelicolor fermentation with GBL, extract fractionation and LC-MS identification of induced secondary metabolites; assay type: cell-based, Streptomyces coelicolor; details: S. coelicolor 300 mL cultures in SMM, 100 μM GBL; for Desferrioxamine B production / Desferrioxamine E production / streptorubin B production / undecylprodigiosin production: 5 days; for Desferrioxamine B production: fraction 28, peak at 1.81, versus untreated control; for Desferrioxamine E production: fraction 28, peak at 2.09, versus untreated control; for streptorubin B production: fraction 41, peak at 3.6, versus untreated control; for undecylprodigiosin production: fraction 41, peak at 3.8, versus untreated control
Method: Yields of both known and unknown bioactive compounds regulated by the presence of signaling hormones are improved by contacting producing cells with an appropriate GBL. Secondary metabolites were isolated from cultures of cells. Triplicate 300 mL cultures of S. coelicolor in SMM, was treated with the synthetic racemic mixture of VB-D and seven enantiomers of the non-cognate GBL shown in FIG. 10, at a total concentration of 100 μM, and an identical culture was grown without GBL. Cells were grown for five days at 29 C shaking at 220 rpm. Triplicates were pooled with GBL-treated and control cultures pooled separately.
A slurry of absorbent resins HP-20, XAD-16, XAD-7 and XAD-4 was added (2-4% weight/volume) and shaking was continued overnight. The resin and cell mass were removed by filtration and were washed three times with 200 mL deionized water. Resin and cell mass were extracted three times with 100-300 mL methanol to elute secondary metabolites from the resin. This extract was concentrated by rotary evaporation to remove extraction solvent.
The crude extract was dissolved in 1-3 mL of dimethylsulfoxide (DMSO) and was injected into a reveleris C18 reverse phase column on a Gilson High-Pressure Liquid Chromatography system. A flow rate of 15 ml/min was run for 40 minutes using mobile phases of methanol with 0.1% formic acid, and water with 0.1% formic acid. Forty-eight fractions were collected from a twenty minutes gradient of solvent from 15% methanol to 95% methanol, and were analyzed for antibacterial content on soft agar lawns of each of a Gram negative indicator strain, Escherichia coli, and a Gram positive indicator strain, Bacillus subtilis.
Further, 10 μL fraction volumes of each fraction were injected into a Waters Xevo G2-S Q-TOF LCMS system for further analytical separation and mass identification.
Fraction 28 of each of the GBL and the control extracts were each analyzed by LC-MS-TOF.
Fraction 41 of each of the GBL and the control extracts were each analyzed by LC-MS-TOF. […] Fraction 41 was subjected to UV chromatogram of diode array HPLC detector analysis. Again at prominent peak at 3.83 was observed. This material was determined to be undecylprodigiosin by mass chromatogram shown in FIG. 25, which has an observed mass of 393.27 and a calculated mass of 394.25.

[4] = listed as synthetic non-cognate GBL

For `CCCCCCC(O)C1C(=O)OCC1CO` (single isomer, unassigned) [3-(1-hydroxyheptyl)-4-(hydroxymethyl)dihydrofuran-2(3H)-one], the “antibiotic production (dark spot)” value ([1]; listed as VB-D and seven enantiomer GBLs thereof having the formulas I-VII) was “production of the blue antibiotic, actinorhodin, and red prodiginies”, the “antibiotic production (dark spot)” value ([1]; listed as compounds 1-VII and virginiae butenolide-D (VB-D)) was “produced antibiotic” and the “antibiotic production (dark spot)” value ([1]; listed as mixture of GBLs) was “production of an antibacterial activity was elicited”. For the same compound, the antibiotic production ([1]; S. coelicolor SMMS plates with racemic mixture of I-VII and VB-D, after 24 hours) was “No antibiotic production was observed”, the “dose dependence of antibiotic production (diameter of dark spot)” value ([1]; S. coelicolor plates, listed as VB-D and seven enantiomer GBLs thereof having the formulas I-VII) was “monotonic dose-dependent response” and the “dose dependence of antibiotic production (diameter of dark spot)” value ([1]; S. coelicolor plates, listed as compounds 1-VII and virginiae butenolide-D (VB-D)) was “dose-dependent monotonically”. The “induction of secondary metabolite production” value [2] was “induction of secondary metabolite production”, the “Desferrioxamine B production” value [3] was “induced” and the “Desferrioxamine B production” value [3, 4] was “substantially enhanced or even induced”. For the same compound, the “Desferrioxamine E production” value [3] was “induced”, the “Desferrioxamine E production” value [3, 4] was “substantially enhanced or even induced” and the “streptorubin B production” value [3] was “induced”. The “streptorubin B production” value [3, 4] was “substantially enhanced or even induced”, the undecylprodigiosin production [3] was “induced” and the undecylprodigiosin production [3, 4] was “substantially enhanced or even induced”. For the same compound, the “production of unknown compound (peak at 1.84)” value ([3]; fraction 28, versus untreated control) was “induced”.

For `CC(O)C1C(=O)OCC1CO` (stereo not drawn) [3-(1-hydroxyethyl)-4-(hydroxymethyl)dihydrofuran-2(3H)-one], the “distinction from control secondary metabolites produced absent GBL (principal component analysis)” value ([2]; S. glaucescens 3 mL cultures, 5 days, 0.2-100 μM GBL) was “greatest distinction from control”, the “induction of secondary metabolite production” value [2] was “induction of secondary metabolite production” and the “dose dependence of induction of secondary metabolites” value ([2]; S. glaucescens, GBL 0.2, 0.8, 4, 20, 100 μM) was “in a dose-dependent manner”. The “concentration of maximal distinction from control” value ([2]; S. glaucescens, principal component analysis) was 100 µM.

For `CCCCCCC(=O)C1C(=O)OCC1CO` (stereo not drawn) [GBLs X and XI], the “time of induction of production of the pigmented antibiotics” value ([1]; S. coelicolor SMMS plates contacted with racemic GBLs X and XI) was “early induction”, the “production of pigmented antibiotics (actinorhodin)” value [1] was “pigmented antibiotic is produced only in response to treatment; also recorded: increased production of pigmented antibiotics” and the “production of pigmented antibiotics (actinorhodin)” value ([1]; listed as X and XI) was “production of the purple antibiotic, actinorhodin”. For the same compound, the “dose dependence of antibiotic production” value ([1]; S. coelicolor plates, increasing amount of GBLs X and XI (FIG. 3)) was “dose-dependent increase in antibiotic production”.
